# In patent US8901276B2, “Peptide reagents and methods for detection of colon dysplasia” (The Regents of the University of Michigan, priority 2010, dated 2014):
# Legend:
# [1] = system: HT29 cells; assay: Flow cytometry of FITC-labeled peptides; format: cell-based, human; conditions: 10 μM, 60 min, 4° C., FITC channel
# Procedure: (§1) Preferential binding of FITC-Peptide 2 to target cells was validated using flow cytometry. HT29 and Hs738.St/Int. (˜2×10^5) cells were grown, detached, and blocked as described above. These cells were incubated with the FITC-Peptide 2 or -Control peptide 2 (10 μM) for 60 min at 4° C. with continuous agitation. The cells were then washed (3×) with cold PBST followed by immediate fixing for 10 min. with 4% paraformaldehyde. The cells were washed again (1×) with PBS and resuspended in 1 mL of PBS. Flow cytometry was performed using FACSDiVa (BD® LSRII, BD Biosciences, San Jose, Calif.) and analyzed using Flowjo analysis program (Tree Star Inc., Ashland, Oreg.).
# (§2) Preferential binding of the candidate peptide labeled with 5-FITC to the target and control cells was also validated using flow cytometry. HT29 and Hs738.St/Int. (˜2×10^5) cells were grown, detached, and blocked, as described above. These cells were incubated with the 5-FITC labeled candidate or control peptide (10 μM) for 60 min at 4° C. with continuous agitation. The cells were then washed 3× with cold PBST followed by immediate fixation for 10 min with 4% paraformaldehyde. The cells were washed again with PBS and resuspended in 1 mL of PBS. Flow cytometry was performed using FACSDiVa (BD® LSRII, BD Biosciences, San Jose, Calif.) and analyzed using Flowjo analysis program (Tree Star Inc. Ashland, Oreg.).
# [2] = system: Hs738.St/Int. cells; assay: Flow cytometry of FITC-labeled peptides; format: cell-based, human; conditions: 10 μM, 60 min, 4° C.
# Procedure: as §1, §2
# [3] = system: Hs738.St/Int. cells; assay: Fluorescence microscopy of FITC-labeled peptides; format: cell-based, human; conditions: 10 μM, 15 min
# Procedure: Preferential binding of the FITC-Peptide 2 and FITC-Control peptide 2 to target and non-target cells was also validated via fluorescence microscopy. HT29 and Hs738.St/Int. cells were grown in 22 mm2 cover slips with ˜80% confluence. Blocking of non-specific binding was performed by adding PBS/0.5% BSA for 30 min. The cells were then incubated with 10 μM of FITC-Peptide 2 or FITC-Control peptide 2 either at 4 or 37° C. for 15 min followed by 1 μg/mL Hoechst dye (Sigma Aldrich, St. Louis, Mo.) along with the peptide. The cells were washed with PBS for 3 times and fixed with 4% paraformaldehyde at room temperature for 10 min. After fixation, the cells were washed again with PBS (1×) and mounted with ProLong® Gold reagent (Invitrogen, Carlsbad, Calif.) and the fluorescence images were acquired with Leica Confocal system. (Leica Microsystems GMBH, Wetzlar, 35578 Germany)
# Preferential binding of the FITC-labeled candidate and control peptides to the target and non-target cells was further validated via fluorescence microscopy. HT29 and Hs738.St/Int. cells were grown on cover slips to ˜80% confluence. Blocking of non-specific binding was performed by adding PBS/0.5% BSA for 30 min. The cells were then incubated with 10 μM of 5-FITC-labeled candidate or control peptide at either 4 or 37° C. for 15 min followed by staining with 1 μg/mL Hoechst dye (Sigma Aldrich, St. Louis, Mo.) along with the peptide. The cells were washed 3× with PBS and fixed with 4% paraformaldehyde at RT for 10 min. After fixation, the cells were washed again with PBS and mounted with ProLong Gold reagent (Invitrogen, Carlsbad, Calif.) and fluorescence images were collected with confocal microscopy (Leica TCS SP5 Microsystems, Bannockburn, Ill.).
# [4] = system: human colonic mucosa sections (normal, dysplasia, adenocarcinoma); assay: Peptide immunohistochemistry on frozen sections (Example 11); conditions: for target-to-background (T/B) ratio KCCFPAQ peptide vs. control peptide: frozen sections; for fluorescence intensity on immunohistochemistry: mean±SEM
# Procedure: All specimens were obtained with approval from the University of Michigan Institutional Review Board (IRB). Freshly resected specimens of human colonic mucosa were frozen in OCT and sectioned with 10 μm thickness. The sections were then air dried, washed with PBS, and incubated with the FITC-labeled peptides at a concentration of 10 μM for 15 min at RT. The sections were washed 3× for 1 min in PBS and fixed with 4% paraformaldehyde for 10 min. After fixation, the sections were washed again and mounted with ProLong Gold reagent with DAPI (Invitrogen, Carlsbad, Calif.). The sections were imaged under a confocal microscope (Leica TCS SP5 Microsystems, Bannockburn, Ill.). Adjacent sections were sent for routine histology. The intensity for each image was calculated using Matlab (Mathworks, Natick, Mass.).
# [5] = system: human EMR specimens (normal mucosa, polypoid and non-polypoid dysplasia); assay: Stereomicroscopic validation on EMR specimens; conditions: for fluorescence intensity on stereomicroscopy: 10 μmol/L, 5 min, mean±SEM
# From the text: Binding of the candidate or control peptide to the dysplasia on freshly resected human specimens via endoscopic mucosal resection (EMR) was validated on fluorescence stereomicroscopy. Patients with previously diagnosed polypoid and non-polypoid dysplasia who were referred for EMR were recruited. Institutional review board approval was obtained from the VA Palo Alto Health Care System, and informed consent was acquired. After resection, the specimens were rinsed in PBS 3× to remove debris and mucous. An autofluorescence image was acquired before incubating with the peptide. Then, specimens were incubated with either the FITC-labeled candidate or control peptide at a concentration of 10 μmol/L for 5 min. The unbound peptide was rinsed off with PBS 3×. The mucosal surface of the specimen was oriented face up, and a dab of ink was applied to the upper border as a landmark to register the white light and fluorescence images with histology. A white light image was collected from the specimen with and without an overlying transparent grid that contains squares with dimensions of 1×1 mm^2. Fluorescence images were collected at 500 milliseconds per frame (with the overlying grid removed) using a stereomicroscope (Olympus SZX-16 equipped with Rolera camera; Olympus Corp, Tokyo, Japan) using 477 to 500 nm excitation and 500 to 630 nm emission. A correction to the fluorescence images was performed because the intensity at the center of the image is greater than that in the periphery due to differences in distance. A fluorescence image was collected from a solution of 10 μM FITC in a plate to provide a uniform target for calibration, allowing for quantitative analysis over the entire field of view. After the fluorescence intensities were corrected, lines along the length of the specimen spaced by 2-mm intervals in each image were identified using the grid from the white light image. The mean intensity from each 1×1 mm^2 interval along this length of tissue was calculated using Matlab and compared with histology. Histopathologic interpretation was performed by a gastrointestinal pathologist (HA) who classified the specimens stained with H&E as normal colonic mucosa, dysplasia, or adenocarcinoma. The histopathologic evaluation of the EMR specimens was conducted at VA Palo Alto Health Care System (AM) and classified as either dysplasia or normal mucosa.
substance,measurement,setting,value
"KCCFPAQ-FITC [FITC-Peptide 2, KCCFPAQ with FITC at the C-terminus on the side chain of lysine residue via GGGSK linker]",total HT29 cell population bound,[1],About 97%
same,total HT29 cell population bound,[1]; listed as KCCFPAQ peptide,97%
same,binding to Hs738.St/Int. cells on flow cytometry,[2],bound minimally
same,binding to Hs738.St/Int. cells on microscopy,[3],not the surface of the Hs738.St/Int cells
same,binding to Hs738.St/Int. cells on microscopy,[3]; listed as KCCFPAQ peptide,No binding
same,binding to adenocarcinoma compared to normal mucosa,[4],3.1 times
same,binding to adenocarcinoma relative to dysplasia,[4],1.5 fold
same,binding to normal colonic mucosa,"[4]; 10 μM, 15 min, RT",no binding
same,staining of dysplasia and adenocarcinoma,"[4]; 10 μM, 15 min, RT",consistently stains
same,target-to-background (T/B) ratio KCCFPAQ peptide vs. control peptide,[4]; adenocarcinoma,3.6
same,fluorescence intensity on immunohistochemistry,[4]; adenocarcinoma,31.5±6.0 AU
same,target-to-background (T/B) ratio KCCFPAQ peptide vs. control peptide,[4]; dysplasia,3.1
same,fluorescence intensity on immunohistochemistry,[4]; dysplasia,21.1±3.8 AU
same,target-to-background (T/B) ratio KCCFPAQ peptide vs. control peptide,[4]; normal mucosa,2.0
same,fluorescence intensity on immunohistochemistry,[4]; normal mucosa,10.1±3.6 AU
same,T/B flat adenoma to adjacent normal mucosa,[5],~2.0 fold
same,T/B polypoid adenoma to adjacent normal mucosa,[5],1.8
same,fluorescence intensity on stereomicroscopy,[5]; non-polypoid dysplasia,85.1±19.2 AU
same,fluorescence intensity on stereomicroscopy,[5]; normal mucosa,43.5±10.7 AU
same,fluorescence intensity on stereomicroscopy,[5]; polypoid dysplasia,78.6±12.8 AU
